{"source": "paper PMC3016957", "about": "“Identification of Myotropic Neuropeptides from the Brain and Corpus Cardiacum-Corpus Allatum Complex of the Beetle, Zophobas atratus” (Journal of Insect Science, 2010)", "key": {"heart of T. molitor": {"tested_on": "heart of T. molitor", "conditions": "cited from earlier work", "source_text": "The most prominent ion signal (1257.8) in both the brain and CC/CA corresponds to leucomyosuppressin, a member of the FMRFamide family first characterized from the cockroach L. maderae ([Holman et al. 1986a]). […] These peptides are pleiotropic as their effects on insects include the modulation of muscle contractile activity ([Predel and Nachman 2001]; [Rosinski 1995])."}, "heart muscles in beetles": {"tested_on": "heart muscles in beetles", "conditions": "synthetic peptide; ref Rosinski 1995; cited from earlier work", "description": "All HPLC fractions were re-suspended in 100 µl of T. molitor saline (274 mM NaCl, 19 mM KCl, 9 mM CaCl2, 5 mM glucose, and 5 mM HEPES, pH 7.0), to a concentration of 1 brain or CC/CA equivalent, and assayed in vitro using a semi-isolated Z. atratus heart prepared according to Gäde and Rosinski ([1990]). In the bioassay, the video microscopy technique and the computer-based method of data acquisition and analysis were used to study the action of the fractions on continuously perfused heart preparations as described previously ([Marciniak et al. 2008]). The activities of tested fractions are pre ... || An AKH (Tenmo-AKH: pELNFSPNWa) had previously been identified from the CC of both T. molitor and Z. atratus (formerly Z. rugipes) ([Gäde and Rosinski 1990]), whereas two AKHs (pELNFSTDWa and pELNFTPNWa) are present in T. castaneum ([Audsley and Weaver, 2008]; [Gäde et al 2008]). From mass analysis of Z. atratus CC, only AKH was identified by the precursor ions 1009.7 and 1025.7, which represent the Na^+ and K^+ adducts of Temno-AKH, and its sequence was confirmed by MALDI-PSD. The protonated form of AKH is not usually detected using MALDI-TOF MS ([Audsley and Weaver, 2003]). Fraction 31 from t ..."}, "[1]": {"tested_on": "semi-isolated Z. atratus heart", "test": "semi-isolated heart bioassay (video microscopy, continuously perfused heart)", "set-up": "species or system Zophobas atratus", "conditions": "synthetic peptide 1×10^-9 M in saline, semi-isolated adult Z. atratus heart, n = 3–8 (Figure 8)", "description": "All HPLC fractions were re-suspended in 100 µl of T. molitor saline (274 mM NaCl, 19 mM KCl, 9 mM CaCl2, 5 mM glucose, and 5 mM HEPES, pH 7.0), to a concentration of 1 brain or CC/CA equivalent, and assayed in vitro using a semi-isolated Z. atratus heart prepared according to Gäde and Rosinski ([1990]). In the bioassay, the video microscopy technique and the computer-based method of data acquisition and analysis were used to study the action of the fractions on continuously perfused heart preparations as described previously ([Marciniak et al. 2008]). The activities of tested fractions are presented as percentage changes in the control frequency of the heart contraction.\nSynthetic peptides were dissolved in saline to yield a stock solution of 1 mM and were stored at -30 °C. Working dilutions (1×10^-9 M) were made from the stock solution in saline."}, "[2]": {"tested_on": "semi-isolated Z. atratus heart", "conditions": "ref Skonieczna and Rosinski 2004; cited from earlier work", "source_text": "The most prominent ion signal (1257.8) in both the brain and CC/CA corresponds to leucomyosuppressin, a member of the FMRFamide family first characterized from the cockroach L. maderae ([Holman et al. 1986a])."}}, "note": "Entries after “also recorded” stand apart in the source; their conditions may differ.", "data": [{"substance": "PFCNAFTGCa [CCAP, crustacean cardioactive peptide]", "values": [{"measurement": "effect on contractions of the myocardium of T. molitor", "setting": "heart of T. molitor; ref Furuya et al. 1993", "result": "stimulate contractions of the myocardium"}]}, {"substance": "Proctolin", "values": [{"measurement": "effect on beetle heart contractions", "setting": "heart muscles in beetles", "result": "stimulates contractions of the heart muscles"}]}, {"substance": "pETSDDYGHLRFa [sulfakinin 1]", "values": [{"measurement": "chronotropic effect on heart contractile activity (in words)", "setting": "[1]", "result": "Neither sulfakinin 1 nor fraction 22 from the brain had any significant action; also recorded: no significant effects"}]}, {"substance": "leucomyosuppressin [LMS]", "values": [{"measurement": "cardioinhibition in Z. atratus", "setting": "[2]", "result": "dose-dependent reversible cardioinhibition"}, {"measurement": "inhibition of heart contractile activity (percentage change in the control frequency of heart contraction)", "setting": "[1]; means ± SEM", "result": 30, "unit": "%"}, {"measurement": "cardioinhibition in T. molitor", "setting": "heart of T. molitor; ref Skonieczna and Rosinski 2004", "result": "dose-dependent reversible cardioinhibition"}]}, {"substance": "SPPFAPRLa [Pyrokinin 2]", "values": [{"measurement": "chronotropic effect on heart contractile activity (in words)", "setting": "[1]", "result": "minor positive chronotropic effect"}, {"measurement": "chronotropic effect on heart contractile activity (in words)", "setting": "[1]; listed as PK 2", "result": "neither synthetic PK 2 nor the corresponding HPLC fraction (25) of CC/CA extract are active"}]}, {"substance": "GRWGGFA [Trica-NVP-4 trunc, truncated NVP-like peptide-4 (GRWGGFA)]", "values": [{"measurement": "chronotropic effect on heart contractile activity (in words)", "setting": "[1]", "result": "no effect on heart activity"}, {"measurement": "chronotropic effect on heart contractile activity (in words)", "setting": "[1]; listed as NVP-4 trunc.", "result": "no effect on heart contractile activity"}]}, {"substance": "pELNFSPNWa [AKH]", "values": [{"measurement": "effect on beetle heart contractions", "setting": "heart muscles in beetles", "result": "positive chronotropic effects"}]}, {"substance": "pETSFTPRLa [Lem-PK]", "values": [{"measurement": "stimulatory activity on the heart of T. molitor", "setting": "heart of T. molitor; ref Rosinski 1995", "result": "very little stimulatory activity"}]}]}
